Measured values from paper PMC11079024, “Identification of a family of species-selective complex I inhibitors as potential anthelmintics” (Nature Communications, 2024).
Where “and” joins values, the source holds several entries; their conditions need not be identical. Identical values can stand only once. Like-named read-outs stand apart in the source and are kept apart here.

Target: C. elegans complex II (succinate dehydrogenase) (Caenorhabditis elegans, UniProt O62215+P41956+Q09545)
Assay: In vitro complex II activity assay, C. elegans mitochondria
Assay type: biochemical
Conditions: for Percent in vitro activity, Complex II (single replicate Rep1-Rep4): individual biological replicates, 100 µM
In short: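 Mitochondria isolated from adult C. elegans were diluted to 0.2 mg/mL protein and assayed for complex II by the DCIP-coupled method. A600 was read every 30 s over 15 min, with initial linear slope expressed as percent of solvent control. Screening was at 100 μM (≥3 biological replicates), followed by dose-response.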

[1] = 100 µM compound, relative to solvent control, mean (SEM), read-out: % Activity Complex II
[2] = 100 μM of NPD compound, C. elegans mitochondria
[3] = 100 μM of NPD compound, C. elegans mitochondria, mean of four biological replicates, read-out: Percent in vitro activity, Complex II (Mean)

Sequence of C. elegans complex II (succinate dehydrogenase) (P41956 30-182): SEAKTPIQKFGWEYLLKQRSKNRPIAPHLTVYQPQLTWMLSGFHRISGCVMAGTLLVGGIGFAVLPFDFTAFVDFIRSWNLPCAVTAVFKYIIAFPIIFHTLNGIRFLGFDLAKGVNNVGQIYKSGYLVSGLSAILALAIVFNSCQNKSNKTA
Sequence of C. elegans complex II (succinate dehydrogenase) (Q09545 22-298): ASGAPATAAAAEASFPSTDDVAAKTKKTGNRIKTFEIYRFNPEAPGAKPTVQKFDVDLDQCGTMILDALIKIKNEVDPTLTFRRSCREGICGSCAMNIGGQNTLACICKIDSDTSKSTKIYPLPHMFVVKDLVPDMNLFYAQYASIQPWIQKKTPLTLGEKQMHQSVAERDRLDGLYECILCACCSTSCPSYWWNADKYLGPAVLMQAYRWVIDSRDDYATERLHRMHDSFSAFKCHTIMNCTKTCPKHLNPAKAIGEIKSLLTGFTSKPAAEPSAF
Sequence of C. elegans complex II (succinate dehydrogenase) (Q09508 32-646, further chain): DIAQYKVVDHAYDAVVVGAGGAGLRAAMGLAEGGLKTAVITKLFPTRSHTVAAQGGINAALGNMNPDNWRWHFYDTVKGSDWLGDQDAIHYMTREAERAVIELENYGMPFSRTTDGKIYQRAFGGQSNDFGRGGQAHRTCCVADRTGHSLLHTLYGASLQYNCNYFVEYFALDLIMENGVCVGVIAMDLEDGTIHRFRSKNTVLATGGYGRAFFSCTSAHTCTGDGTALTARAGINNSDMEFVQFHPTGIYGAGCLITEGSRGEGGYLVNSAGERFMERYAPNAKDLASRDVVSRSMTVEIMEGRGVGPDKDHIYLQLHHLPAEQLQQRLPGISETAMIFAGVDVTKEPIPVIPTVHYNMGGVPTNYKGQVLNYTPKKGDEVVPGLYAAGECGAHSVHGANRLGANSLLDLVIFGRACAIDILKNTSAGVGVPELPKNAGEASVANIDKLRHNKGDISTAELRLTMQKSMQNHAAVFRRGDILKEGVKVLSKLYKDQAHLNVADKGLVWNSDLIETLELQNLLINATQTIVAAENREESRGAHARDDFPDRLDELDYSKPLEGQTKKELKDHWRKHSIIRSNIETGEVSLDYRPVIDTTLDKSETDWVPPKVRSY
Sequence of C. elegans complex II (succinate dehydrogenase) (O62215 31-145): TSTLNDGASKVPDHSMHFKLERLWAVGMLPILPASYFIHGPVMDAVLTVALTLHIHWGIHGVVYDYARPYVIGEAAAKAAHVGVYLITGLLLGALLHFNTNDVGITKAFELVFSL

## Cc1cc(O)c2c(c1)O[C@@]1(C)CC[C@H]3C(C)(C)CCC[C@]34CO[C@@H]2[C@H]41 [Siccanin]
Dose 0.0001 µM, Mean of replicates, wild-type C. elegans, read-out: percent (%) in vitro complex II activity relative to solvent control
  remaining activity at 0.0001 µM: 103%
Dose 0.0001 µM, individual replicates, wild-type C. elegans
  percent (%) in vitro complex II activity relative to solvent control: 101.370% and 113.242%
Dose 0.0001 µM, individual replicates, wild-type C. elegans, read-out: percent (%) in vitro complex II activity relative to solvent control
  remaining activity at 0.0001 µM: 95.2%
Dose 0.0005 µM, Mean of replicates, wild-type C. elegans, read-out: percent (%) in vitro complex II activity relative to solvent control
  remaining activity at 0.0005 µM: 104%
Dose 0.0005 µM, individual replicates, wild-type C. elegans
  percent (%) in vitro complex II activity relative to solvent control: 86.897% and 113.059% and 111.964%
Dose 0.001 µM, Mean of replicates, wild-type C. elegans, read-out: percent (%) in vitro complex II activity relative to solvent control
  remaining activity at 0.001 µM: 84.8%
Dose 0.001 µM, individual replicates, wild-type C. elegans
  percent (%) in vitro complex II activity relative to solvent control: 69.310% and 87.306% and 97.900%
Dose 0.0025 µM, Mean of replicates, wild-type C. elegans, read-out: percent (%) in vitro complex II activity relative to solvent control
  remaining activity at 0.0025 µM: 76.6%
Dose 0.0025 µM, individual replicates, wild-type C. elegans
  percent (%) in vitro complex II activity relative to solvent control: 54.828% and 79.635% and 95.343%
Dose 0.005 µM, Mean of replicates, wild-type C. elegans, read-out: percent (%) in vitro complex II activity relative to solvent control
  remaining activity at 0.005 µM: 64.8%
Dose 0.005 µM, individual replicates, wild-type C. elegans
  percent (%) in vitro complex II activity relative to solvent control: 62.831% and 72.146%
Dose 0.005 µM, individual replicates, wild-type C. elegans, read-out: percent (%) in vitro complex II activity relative to solvent control
  remaining activity at 0.005 µM: 59.3%
Dose 0.013 µM, Mean of replicates, wild-type C. elegans, read-out: percent (%) in vitro complex II activity relative to solvent control
  remaining activity at 0.013 µM: 42.5%
Dose 0.013 µM, individual replicates, wild-type C. elegans
  percent (%) in vitro complex II activity relative to solvent control: 45.480% and 44.018%
Dose 0.013 µM, individual replicates, wild-type C. elegans, read-out: percent (%) in vitro complex II activity relative to solvent control
  remaining activity at 0.013 µM: 37.9%
Dose 0.025 µM, Mean of replicates, wild-type C. elegans, read-out: percent (%) in vitro complex II activity relative to solvent control
  remaining activity at 0.025 µM: 27.5%
Dose 0.025 µM, individual replicates, wild-type C. elegans
  percent (%) in vitro complex II activity relative to solvent control: 28.128% and 27.763%
Dose 0.025 µM, individual replicates, wild-type C. elegans, read-out: percent (%) in vitro complex II activity relative to solvent control
  remaining activity at 0.025 µM: 26.6%
Dose 0.063 µM, Mean of replicates, wild-type C. elegans, read-out: percent (%) in vitro complex II activity relative to solvent control
  remaining activity at 0.063 µM: 13%
Dose 0.063 µM, individual replicates, wild-type C. elegans
  percent (%) in vitro complex II activity relative to solvent control: 17.717% and 11.872%
Dose 0.063 µM, individual replicates, wild-type C. elegans, read-out: percent (%) in vitro complex II activity relative to solvent control
  remaining activity at 0.063 µM: 9.48%
Dose 0.125 µM, Mean of replicates, wild-type C. elegans, read-out: percent (%) in vitro complex II activity relative to solvent control
  remaining activity at 0.125 µM: 9.4%
Dose 0.125 µM, individual replicates, wild-type C. elegans
  percent (%) in vitro complex II activity relative to solvent control: 1.897% and 15.890% and 10.411%
Dose 0.313 µM, Mean of replicates, wild-type C. elegans, read-out: percent (%) in vitro complex II activity relative to solvent control
  remaining activity at 0.313 µM: 6.54%
Dose 0.313 µM, individual replicates, wild-type C. elegans
  percent (%) in vitro complex II activity relative to solvent control: 4.655% and 12.968% and 2.009%
Dose 0.625 µM, Mean of replicates, wild-type C. elegans, read-out: percent (%) in vitro complex II activity relative to solvent control
  remaining activity at 0.625 µM: 3.28%
Dose 0.625 µM, individual replicates, wild-type C. elegans
  percent (%) in vitro complex II activity relative to solvent control: 3.621% and 6.210%
Dose 1.5 µM, Mean of replicates, wild-type C. elegans, read-out: percent (%) in vitro complex II activity relative to solvent control
  remaining activity at 1.5 µM: 9.39%
Dose 1.5 µM, individual replicates, wild-type C. elegans
  percent (%) in vitro complex II activity relative to solvent control: 5.345% and 10.046% and 12.785%
Dose 3 µM, Mean of replicates, wild-type C. elegans, read-out: percent (%) in vitro complex II activity relative to solvent control
  remaining activity at 3 µM: 3.77%
Dose 3 µM, individual replicates, wild-type C. elegans
  percent (%) in vitro complex II activity relative to solvent control: 3.448% and 7.854%
Dose 15 µM, Mean of replicates, wild-type C. elegans, read-out: percent (%) in vitro complex II activity relative to solvent control
  remaining activity at 15 µM: 1.28%
Dose 15 µM, individual replicates, wild-type C. elegans
  percent (%) in vitro complex II activity relative to solvent control: 1.461% and 2.374%
Mean of replicates, wild-type C. elegans, read-out: percent (%) in vitro complex II activity relative to solvent control
  remaining activity at 37.5 µM: 0%
Individual replicates, wild-type C. elegans, read-out: percent (%) in vitro complex II activity relative to solvent control
  remaining activity at 37.5 µM: 0%
Dose 75 µM, Mean of replicates, wild-type C. elegans, read-out: percent (%) in vitro complex II activity relative to solvent control
  remaining activity at 75 µM: 1.83%
Dose 75 µM, individual replicates, wild-type C. elegans
  percent (%) in vitro complex II activity relative to solvent control: 5.480%
wild-type (N2) mitochondria
  IC50: 10.7 nM

## CC(C)Cc1ccc(C(C)c2nc3ccccc3n2C)cc1 (stereo not drawn) [NPD8790]
[1]
  activity at 100 µM: 99.7%
[2]
  Percent in vitro activity, Complex II (single replicate Rep1-Rep4): 81.090% and 92.425% and 103.697% and 121.642%
[3]
  activity at 100 µM: 99.7%

## COc1cc2c(cc1OC)C(c1ccc(-c3ccc(Cl)c(Cl)c3)o1)=NCC2 [NPD3577]
[1]
  activity at 100 µM: 115%
[2]
  Percent in vitro activity, Complex II (single replicate Rep1-Rep4): 133.014% and 126.621% and 103.513% and 97.309%
[3]
  activity at 100 µM: 115%

## C=C(C)[C@H]1Cc2c(ccc3c2O[C@@H]2COc4cc(OC)c(OC)cc4[C@@H]2C3=O)O1 [Rotenone, reference compound]
[1]
  activity at 100 µM: 106%
100 μM inhibitor, in vitro activity relative to solvent control, N2 C. elegans mitochondria, Mean, read-out: CII Activity
  activity at 100 µM: 106%
[2]
  Percent in vitro activity, Complex II (single replicate Rep1-Rep4): 120.467% and 95.666% and 95.033% and 112.709%
[3]
  activity at 100 µM: 106%
